We go through three compounds from ChEMBL document CHEMBL5316308, “BET-HDAC Dual Inhibitors for Combinational Treatment of Breast Cancer and Concurrent Candidiasis” (J Med Chem, 2023).

The test system of test [1] is MDA-MB-231. Description: Induction of apoptosis in human MDA-MB-231 cells assessed as late apoptotic cells at 2.5 uM incubated for 48 hrs by Annexin V-FITC/PI staining based flow cytometry relative to control. It counts as functional. A general note: Flow cytometry measures light scatter and fluorescence of single cells or particles in a stream.
For test [2], the system named is Candida albicans. Description: Synergistic antifungal activity against Candida albicans 0304103 infected in ICR mouse assessed as decrease in kidney fungal load at 20 mg/kg, ip for 5 consecutive days. It counts as functional, organism-based. The following applies: time 5.0 day.
The test system of test [3] is MDA-MB-231. In words: Induction of apoptosis in human MDA-MB-231 cells assessed as late apoptotic cells at 10 uM incubated for 48 hrs by Annexin V-FITC/PI staining based flow cytometry relative to control. It counts as functional.
The test system of test [4] is MDA-MB-231. In words: Induction of apoptosis in human MDA-MB-231 cells assessed as late apoptotic cells at 5 uM incubated for 48 hrs by Annexin V-FITC/PI staining based flow cytometry relative to control. It counts as functional.
The subject of test [5] is Candida albicans. Description: Antifungal activity FLC-resistant Candida albicans 0304103 assessed as hyphal formation at 32 ug/ml incubated for 3 hrs by inverse fluorescent microscopy. The format is functional, organism-based. The following applies: dose 32.0 µg/ml.
Test [6] deals with Candida albicans. Description: Antifungal activity against azole-resistant Candida albicans 0304103 assessed as fungal growth inhibition at 1 to 4 ug/ml measured upto 24 hrs by absorbance based assay. The following applies: dose 1-4 µg/ml. The format is functional, organism-based.
Test [7] relates to HL-60. In words: Antiproliferative activity against human HL-60 cells assessed as cell growth inhibition incubated for 24 hrs by CCK-8 assay. It counts as functional, cell-based. The following applies: HL-60, 24 h. (Tetrazolium assays rely on reduction of a dye to a coloured formazan, in cell work by metabolically active cells.)
Test [8] has as its system MDA-MB-231. In words: Antiproliferative activity against human MDA-MB-231 cells assessed as cell growth inhibition incubated for 24 hrs by CCK-8 assay. The following applies: MDA-MB-231, 24 h. The format is functional, cell-based.
The subject of test [9] is Candida albicans. Description: Synergistic antifungal activity against azole-resistant Candida albicans 0304103 assessed as fungal growth inhibition measured after 48 hrs in presence of SAHA by CLSI based micro-dilution broth method. It counts as functional.
The subject of test [10] is Cryptococcus neoformans. In words: Antifungal activity against Cryptococcus neoformans H99 assessed as fungal growth inhibition measured after 48 hrs in presence of SAHA by CLSI based micro-dilution broth method. It counts as functional. Background: Broth dilution looks for growth in wells or tubes with falling amounts of substance.
Test [11] relates to Candida albicans. In words: Synergistic antifungal activity against azole-resistant Candida albicans 0304103 assessed as fractional inhibitory concentration index measured after 48 hrs in presence of FLC and SAHA by CLSI based micro-dilution broth method. It counts as functional.
Test [12] deals with Candida albicans. Description: microbe, parasite or virus in culture. It counts as functional. The following applies: 0304103, time 48 hrs.
Description: Synergistic antifungal activity against azole-resistant Candida albicans 0304103 assessed as fungal growth inhibition measured after 48 hrs in presence of FLC by CLSI based micro-dilution broth method
Test [13] relates to MDA-MB-231. Description: Antitumor activity against human MDA-MB-231 cells xenografted in Balb/c nude mouse assessed as tumor growth inhibition at 10 mg/kg, ip qd for 21 consecutive days relative to control. It counts as functional. The following applies: MDA-MB-231, 480 h, time 20 day, read-out: TGI.
Test [14] has as its system K562. Description: Antiproliferative activity against human K562 cells assessed as cell growth inhibition incubated for 24 hrs by CCK-8 assay. The format is functional, cell-based. The following applies: K562, 24 h.
Test [15] relates to HL-60. Description: Antiproliferative activity against human HL-60 cells assessed as cell growth inhibition incubated for 24 hrs in presence of SAHA by CCK-8 assay. The following applies: HL-60, 24 h. It counts as functional, cell-based.
The subject of test [16] is Candida albicans. In words: microbe, parasite or virus in culture. It counts as functional. The following applies: 0304103, time 48 hrs. This is another data set of the same source.
Description: Synergistic antifungal activity against azole-resistant Candida albicans 0304103 assessed as fungal growth inhibition measured after 48 hrs by CLSI based micro-dilution broth method
Test [17] concerns Candida albicans. In words: Synergistic antifungal activity against azole-resistant Candida albicans 0304103 assessed as fungal growth inhibition measured after 48 hrs in presence of FLC and SAHA by CLSI based micro-dilution broth method. It counts as functional.
The subject of test [18] is Candida albicans. Description: Synergistic antifungal activity against azole-resistant Candida albicans 0304103 assessed as fungal growth inhibition at 32 ug/ml measured upto 24 hrs in presence of FLC by absorbance based assay. The format is functional, organism-based. The following applies: dose 32.0 µg/ml.
Test [19] deals with Candida albicans. It counts as functional, 0304103. The following applies: time 48 hrs.
Description: Synergistic antifungal activity against azole-resistant Candida albicans 0304103 assessed as fractional inhibitory concentration index measured after 48 hrs in presence of FLC by CLSI based micro-dilution broth method
The subject of test [20] is HEL. In words: Antiproliferative activity against human HEL cells assessed as cell growth inhibition incubated for 24 hrs by CCK-8 assay. It counts as functional, cell-based.
Test [21] relates to HEL. In words: Antiproliferative activity against human HEL cells assessed as cell growth inhibition incubated for 24 hrs in presence of SAHA by CCK-8 assay. The format is functional, cell-based.
Test [22] deals with MDA-MB-231. In words: Antiproliferative activity against human MDA-MB-231 cells assessed as cell growth inhibition incubated for 24 hrs in presence of SAHA by CCK-8 assay. It counts as functional, cell-based. The following applies: MDA-MB-231, 24 h.
Test [23] has as its system Cryptococcus neoformans. In words: Antifungal activity against Cryptococcus neoformans H99 assessed as fungal growth inhibition measured after 48 hrs by CLSI based micro-dilution broth method. It counts as functional.
Test [24] deals with K562. In words: Antiproliferative activity against human K562 cells assessed as cell growth inhibition incubated for 24 hrs in presence of SAHA by CCK-8 assay. The format is functional, cell-based. The following applies: K562, 24 h.

≈ marks a conversion by molar mass, not a printed value. Calls of active or inactive are those of the source. The calls are words filed in the database; no cut-off is given here.

As usually defined, the IC50 is the concentration needed to halve the response being measured.

Regarding `O=C(CCCCCCC(=O)Nc1ccccc1)NO` [VORINOSTAT], the Activity in the test on MDA-MB-231 [1] amounted to 16.91%; with MDA-MB-231 [3] it was 27.19%; in the test with MDA-MB-231 [4], 22.96%. Moreover, the result in the test on Candida albicans [2] was inactive.
As for `OC(Cn1cncn1)(Cn1cncn1)c1ccc(F)cc1F`, in the test on Candida albicans [5], the result was Active. The result in the test with Candida albicans [6] was inactive.
With `COc1cc2c(cc1-c1c(C)noc1C)[nH]c1nc(C)nc(Nc3cc(C4CC4)nn3C)c12`, the IC50 in the test on HL-60 [7] was found to be 1500 nM; in the test on MDA-MB-231 [8], 3.8 µM; with K562 [14], 2300 nM; in the test on HL-60 [15] it was 1400 nM; in the test with HEL [20], 600 nM; with HEL [21] it was 400 nM. For the same compound, the IC50 stood at 1600 nM in the test on MDA-MB-231 [22] and 0.21 nM with K562 [24]. The MIC80 in the test on Candida albicans [9] was above 64 µg/mL; in the test with Cryptococcus neoformans [10], 64 µg/mL; in the test on Candida albicans [12] it was 16 µg/mL (≈ 36.1 µM); against Candida albicans [16], above 64 µg/mL; in the test on Candida albicans [17], 1 µg/mL; with Cryptococcus neoformans [23], 32 µg/mL (≈ 72.2 µM). For the same compound, the “fractional inhibitory concentration index (FICI)” value with Candida albicans [11] is 0.26; with Candida albicans [19], 1.2. The inhibition in vivo at 10 mg/kg in the test on MDA-MB-231 [13] came to 22%. In addition, the Activity in the test on MDA-MB-231 [1] is 8.25%; in the test on MDA-MB-231 [3], 16.93%; in the test with MDA-MB-231 [4] it was 9.99%. For the same compound, the outcome in the test with Candida albicans [18] and in the test on Candida albicans [2] was inactive.
